Laboratory results from patent US20030220373A1, “Therapeutic uses of PPAR mediators” (priority 2000, published 2003).

Tested on: ABC1 expression
Assay: ABC1 up-regulation in human THP-1 cells by PPAR mediators (Northern blotting; also quantitative PCR Taqman)
Format: cell-based
Conditions: relative to DMSO
Experimental: THP-1 cells, a human monocytic cell line, are maintained in RPMI with 10% FCS (fetal calf serum)/[…] gentamycin/25 mM Hepes. Cells are plated at approximately 1×10^5 per cm^2 in RPMI/10% charcoal-stripped FCS (Hyclone) the presence or absence of 100 ng/ml PMA (phorbol myritic acid)(Gibco BRL) and the indicated concentrations of test compound or DMSO (dimethyl sulfoxide). Test compounds are refreshed daily. Alternatively, cells are incubated with […] AcLDL (acetylated LDL) as positive control. After 48 or 72 hours, cellular RNA is isolated with Trizol® (Gibco) according to the manufacturer's instructions. Total RNA ([…]) is subjected to Northern blotting. The fragment used as a probe is a 431bp PCR product of ABC1 corresponding to nucleotides (nt's) 3306-3737 of Genbank Ace # AJ012376 (T. Langmann et al,1999, BBRC 257, 29-33). The sequences of the primers usd to generate the fragment are: […] nt. pos 3306-3326 (forward); […] nt. pos 3737-3711 (reverse). Blots are hybridized with this probe labelled with [a32P]dCTP (Amersham) with ExpressHyb® (Clontech, Palo Alto Calif.) according to manufacturer's protocol, washed, and exposed to X-ray film. Resulting signals are quantitated by densitometry.
A representative example of a Northern blotting analysis is represented in FIG. 1 and corresponding graph bar in FIG. 2.

Row | Compound | increase in up-regulation of ABC 1 expression relative to treatment with DMSO
1 | c1ccc(Cc2nnn[nH]2)c(COc2ccc(OCc3ccc4ccccc4n3)cc2)c1 [compound of formula VI, 5-[2-(4-(2-quinolinylmethoxy)phenoxymethyl)benzyl]tetrazole] | fourteen fold increase

Same assay, conditions: treatment at 1 and 10 μM, Northern blotting (FIG. 1, FIG. 2)

Row | Compound | up-regulation of ABC1 expression
2 | Cc1cccc(COc2cccc(OCc3ccc4ccccc4n3)c2)c1C(=O)O [RPR52] | up-regulation of ABC1 expression
3 | Cc1cc(OCc2ccccc2)cc(OCc2cccc(OCc3ccc4ccccc4n3)c2)c1C(=O)O [RPR64] | up-regulation of ABC1 expression

Tested on: not given
Assay: not given
Conditions: not given

Row | Compound | melting point
4 | N#Cc1cccc(OCc2cccc(OCc3ccc4ccccc4n3)c2)c1 [Example 7, 3-[3-(2-quinolinylmethyloxy)benzyloxy]benzonitrile] | 86 to 87 °C
5 | c1cc(COc2cccc(-c3nnn[nH]3)c2)cc(OCc2ccc3ccccc3n2)c1 [Example 10, 5-[3-(3-(2-quinolinylmethyloxy)benzyloxy)-phenyl]tetrazole] | 169 to 172 °C
6 | c1ccc2nc(COc3ccc(COc4ccc(-c5nnn[nH]5)cc4)cc3)ccc2c1 [Example 11, 5-[4-(4-(2-quinolinylmethyloxy)benzyloxy)phenyl]tetrazole] | 210 to 213 °C
7 | c1ccc2nc(COc3ccc(COc4ccc(Cc5nnn[nH]5)cc4)cc3)ccc2c1 [Example 12, 5-[4(4-(2-quinolinylmethyloxy)benzyloxy)benzyl]tetrazole] | 179 to 181 °C
8 | COC(=O)c1ccc(OCc2cccc(OCc3ccc4ccccc4n3)c2)c(OC)c1 [Example 14, methyl 3-methoxy-4-(3-(2-quinolinylmethyloxy)benzyloxy)-benzoate] | 100 to 101 °C
9 | COc1cc(C(=O)O)ccc1OCc1cccc(OCc2ccc3ccccc3n2)c1 [Example 15, 3-methoxy-4-(3-(2-quinolinylmethyloxy)benzyloxy)benzoic acid] | 188 to 190 °C
10 | COC(=O)c1cccc(COc2cccc(OCc3ccc4ccccc4n3)c2)c1 [Example 19, methyl 3-(3-(2-quinolinylmethyloxy)phenoxymethyl)benzoate] | 93 to 94 °C
11 | O=C(O)c1cccc(COc2cccc(OCc3ccc4ccccc4n3)c2)c1 [Example 20, 3-(3-(2-quinolinylmethyloxy)phenoxymethyl)-benzoic acid] | 149 to 151 °C
12 | c1cc(OCc2ccc3ccccc3n2)cc(OCc2ccccc2Cc2nnn[nH]2)c1 [Example 28, 5-(2-(3-(2-quinolinylmethyloxy)phenoxymethyl)benzyl)tetrazole] | 145.5 to 147 °C
13 | c1cc(OCc2ccc3ccccc3n2)cc(OCc2ccccc2-c2nnn[nH]2)c1 [Example 28, 5-(2-(3-(2-quinolinylmethyloxy)phenoxymethyl)phenyl)tetrazole] | 166 to 170 °C
14 | c1cc(OCc2cccc(-c3nnn[nH]3)c2)cc(OCc2ccc3ccccc3n2)c1 [Example 28, 5-(3-(3-(2-quinolinylmethyloxy)phenoxymethyl)phenyl)tetrazole] | 115 °C (dec.)
15 | c1cc(OCc2ccc(Cc3nnn[nH]3)cc2)cc(OCc2ccc3ccccc3n2)c1 [Example 28, 5-(4-(3-(2-quinolinylmethyloxy)phenoxymethyl)benzyl)tetrazole] | 149 to 151 °C
16 | c1cc(COc2ccc(OCc3ccc4ccccc4n3)cc2)cc(OCc2nnn[nH]2)c1 [Example 32, 5-(3-(4-(2-quinolinylmethyloxy)phenoxymethyl)phenoxymethyl)tetrazole] | 131 to 132 °C

Tested on: ABC1 expression
Assay: ABC1 up-regulation in human primary hepatocytes (RNA analysis)
Format: cell-based
Conditions: human primary hepatocytes (FIG. 4)
Experimental: Assay Example 2: ABC 1 Up-regulation in Human Hepatocytes and Human Macrophages Derived Monocytes by Fenofibric Acid, and for Wy 14,643 and Related Cholesterol Efflux in Macrophages Human liver specimens are collected from healthy multiorgan donors for transplantation who died after severe traumatic brain injury. Hepatocytes are obtained by a two-step collagenase perfusion (REF). Cells are resuspended in minimal essential medium with Earl's salts with 10% FCS, 2 mM glutamine, […] gentamycin, seeded at density of 1.5×10^5 cells/cm^2 in plastic culture dishes coated with 20 mg rat tail collagene type I (Sigma).Medium is renewed after 4 hours of adhesion. After 20 hours the medium is discarded and differents compounds added at the indicated concentrations in serum-free medium. Total cellular RNA is extracted from differentated macrophages treated for 6 hours with different compounds using the RNA plus kit (Bioprobe System, Montreuil, france). RNA from human hepatocytes are prepared as described by Chomczynski and Sacchi. For RT-PCR analysis, total RNA is reverse transcribed using random hexamer primers and Superscript reverse transcriptase (Life Technologies) as sebsequently amplified by PCR. The resulting products are separated on a 1% agrose gel and stained with ethidium bromide.

Row | Compound | ABC1 up-regulation
17 | Cc1cccc(Nc2cc(Cl)nc(SCC(=O)O)n2)c1C [Wy 14,643, pyrinixic acid] | ABC1 up-regulation
